# Assay results published in patent publication US12491249B2, “Methods for manufacturing phthalocyanine dye conjugates and stable conjugates” (Rakuten Medical, Inc., priority 2015, dated 2025).
# Where two headings read alike, the source gives them in different places.
# Assays:
# [1] = cited from earlier work
# A431 cells = test: EGF-IR700 light-dependent killing; assay type: cell-based; conditions: for light-dependent killing after conjugate pre-exposure: 1 μg/mL
# Protocol: To assess if EGF-IR700 cell killing was assessed in A431 cells. A431 cells were seeded at 5000 cells per well in 96 well white clear bottom dishes one day prior to the experiment. The following day, the A431 cells were washed three times with EMEM supplemented with 1% Penicillin/Streptomycin (serum free media). The A431 cells were then washed one time with serum free media, then incubated with serum free media containing 1 sg/mL of EGF-IRDye 700DX for one hour at 4° C. or serum free media only. As a control to assess the specificity of the activity, in one condition A431 cells were pre-incubated with 100 sg/mL unconjugated cetuximab diluted in serum free media for one hour at 4° C. prior to incubation with 1 sg/mL of EGF-IRDye 700DX. The cells were then washed one time with serum free media.
# To induce IR700-dependent killing, the cells were then illuminated with a 690 nm laser with 32 J/cm^2 of light or protected from light (“no light”). Cell death was evaluated as described in Example 9 using CellTox Green. The normalized percentage of dead cells was calculated by subtracting all wells by the percentage of dead cells from the no light serum free media only control, dividing by EGF-IRDye 700DX at 32 J/cm^2 minus the no light serum-free media only control, and multiplied 100.
# The effect of EGF-IRDye 700DX pre-exposure to white light versus green light on photo-activated cell killing was also evaluated in A431 cells. EGF-IRDye 700DX was pre-exposed to different types of light and the effect of light treatment on photo-activated killing activity was evaluated. Five microliters of EGF-IRDye 700DX conjugate (DAR 2) was added per clear HPLC vial at a EGF-IRDye 700DX concentration of 1.14 mg/mL. The following conditions were tested: (1) the antibody-IRDye 700DX conjugate stored at 4° C. protected from light (“4° C.”, used as the control); (2). antibody-IRDye 700DX conjugate placed in a clear glass HPLC tube under a Halogen lamp at 2500 lux for 24 hrs (“white light”); (3) antibody-IRDye 700DX conjugate placed in a clear glass HPLC tube wrapped in aluminum foil to protect from light exposure under Halogen lamp at 2500 lux for 24 hrs (“no light”, used as a control for thermal heating effects on the formation of aggregates); and (4) antibody-IRDye 700DX conjugate placed in a clear glass HPLC tube and exposed to green LED lamp at 2500 lux for 24 hrs (“green light”).
# To assess cell killing activity, A431 cells were washed two times with serum free media, and incubated in serum free media alone for one hour at 4° C. The cells were then washed one time with serum free media and incubated with serum free media alone or serum free media containing 1 μg/mL of EGF-IRDye 700DX (“no light”), serum free media containing 1 μg/mL of EGF-IRDye 700DX pre-exposed to white light (“2500 Lux White light”), or serum free media containing 1 μg/mL EGF-IRDye 700DX pre-exposed to green light for one hour at 4° C. (“2500 Lux Green light”). The cells were then washed one time with serum free media.
# To induce cell killing, the cells were either protected from light (light dose 0 J/cm^2) or were illuminated with a 690 nm laser with different light dosimetries (8 J/cm^2, 32 J/cm^2 or 64 J/cm).
molecule,measurement,setting,value
"C=Cc1c(C)c2cc3nc(c(CC(=O)N[C@@H](CC(=O)[O-])C(=O)[O-])c4[nH]c(cc5nc(cc1[nH]2)C(C)=C5CC)c(C)c4C(=O)[O-])[C@@H](CCC(=O)[O-])[C@@H]3C.[Na+].[Na+].[Na+].[Na+] [NPe6/Laserphyrin, mono-L-aspartylchlorin e6]",extinction coefficient,[1]; at 654 nm,40000 M⁻¹ cm⁻¹
EGF-IRDye 700DX: Human recombinant epidermal growth factor (EGF) conjugated to IRDye 700DX,cell killing,"A431 cells; 1 sg/mL, 690 nm 32 J/cm^2 or no light",light-dependent killing
same,cell killing after receptor blocking,"A431 cells; cells pre-exposed to 100 sg/mL unconjugated cetuximab, 1 sg/mL conjugate",blocked light-dependent cell killing
same,light-dependent killing after conjugate pre-exposure,"A431 cells; green light, green LED lamp 2500 lux 24 hours",comparable to that of the “no light” EGF-IRDye 700DX
same,light-dependent killing after conjugate pre-exposure,"A431 cells; protected from light, thermal heating under halogen lamp 2500 lux 24 hours",exhibited light-dependent killing
same,light-dependent killing after conjugate pre-exposure,"A431 cells; white light, halogen lamp 2500 lux 24 hours",no longer exhibited light-dependent killing activity
Photofrin,extinction coefficient,[1]; at 630 nm,1200 M⁻¹ cm⁻¹
